# Data from patent US9957253B2, “Triaminopyrimidine compounds useful for preventing or treating malaria” (MMV MEDICINES FOR MALARIA VENTURE, priority 2014, dated 2018).
# Assay: Pharmacokinetic studies (IVPK/POPK) in male Beagle dogs
# Type: in vivo
# Details: Dog
# Experimental: All in vivo studies were approved by the institutional animal ethics committee. Pharmacokinetics following IV bolus (IVPK) or oral administration (POPK) of compounds was determined in male Wistar rats or male Beagle dogs. For IVPK in rats, Example 7 and Example 10 were administered as solutions in 20% DMA, 80% phosphate-buffered saline and Example 13 was administered as a solution in 10% v/v NMP, 20% v/v DMA in saline. For POPK, Example 7 and Example 10 were administered as suspensions in 20% DMA, 80% phosphate buffered saline and Example 13 was administered as a suspension in 0.5% HPMC and 0.1% Tween 80 through an oral gavage. Example 13 was administered to dogs as a solution in 10% Ethanol, 30% PEG 400, 60% saline for IVPK and as a suspension in 0.5% HPMC, and 0.1% Tween 80 for POPK. Doses used for rat and dog PK were 0.5 mg/kg for Examples 7 and 10 or 2 mg/kg for Example 13 (IVPK). Doses of 5 mg/kg for Examples 7 and 10 were used during POPK. Doses of 10 mg/kg were used for Example 13 during POPK studies. Blood samples were collected at 8 to 13 time points (0, 0.0833, 0.25, 0.283, 0.333, 0.417, 0.75, 1.25, 3.25, 6.25, 12.25, 24.25 h for dog IVPK; 0, 0.25, 0.5, 1, 1.5, 2, 3, 4, 8, 12, 24, 32, 48 h for dog POPK; 0.083, 0.25, 0.5, 1, 2, 4, 7, 24 h for rat IVPK; 0.25, 1, 3, 6, 12, 24, 36, 48 h for rat POPK) after dosing. Blood (rat) or plasma (dog) samples were analysed by LC-MS/MS. PK parameters were estimated by non-compartmental analysis in Phoenix®.
structure (smiles),measurement,setting,value
"Cc1nc(Nc2ncc(N3CCN(C)[C@H](C)C3)c(Nc3cc(C)n(C)n3)n2)cc(C2CC2)c1F [Example 13, (R)—N2-(4-cyclopropyl-5-fluoro-6-methylpyridin-2-yl)-N4-(1,5-dimethyl-1H-pyrazol-3-yl)-5-(3,4-dimethylpiperazin-1-yl)pyrimidine-2,4-diamine]",Oral ‘F’,oral 10 mg/kg,82%
same,½ life (PO PK),oral 10 mg/kg,9 h
same,clearance,"male, Beagle, blood, IV bolus 2 mg/kg, read-out: CL blood",19 mL/min/kg
same,Vd,"male, Beagle, blood, IV bolus 2 mg/kg, read-out: Vss blood",16 L/kg
